Measured values as given in PMC10999085, “Synthesis, anticancer evaluation, molecular docking and ADME study of novel pyrido[4ʹ,3ʹ:3,4]pyrazolo[1,5-a]pyrimidines as potential tropomyosin receptor kinase A (TrKA) inhibitors” (BMC Chemistry, 2024).

What was measured:
HepG2 cells = assay: Annexin V-FITC apoptosis assay; format: cell-based, human; conditions: for Apoptosis Early / Apoptosis Late / Necrosis: HepG2, 48 h, Annexin V-FITC/PI; for increase of early apoptosis ratio / increase of late apoptosis rate: HepG2, compared with untreated control cells
Procedure: HepG-2 cells were harvested and incubated with compounds 7b, 15b, 16a and 16c separately for 48 h. Then, the cells were collected and washed with PBS two successive times followed by centrifugation. After that, the cells were treated with Annexin V-FITC and propidium iodide (PI) using the apoptosis detection kit (BD Biosciences and Annexin V-FITC and PI binding were analyzed by a flow cytometer.
Early and late apoptosis was determined after treatment of HepG2 cells with compounds 7b, 15b, 16a and 16c compared with untreated control cells. The late apoptosis rate increased by about 13, 20, 4 and 3 times, respectively, showing a higher efficiency than the early apoptosis ratio 5, 2, 8 and 6 times, respectively.
As mentioned above, HepG-2 cells were collected and incubated separately with compounds 7b, 15b, 16a and 16c for 48 hr. Cells were then collected and washed twice consecutively with PBS and centrifuged. After that, the cells were treated with Annexin V-FITC and propidium iodide (PI) using an apoptosis detection kit (BD Biosciences, San Jose, CA) according to the manufacturer's instructions. The biding of Annexin V-FITC and PI was analyzed by ﬂow cytometer.

MCF7 cell line = assay: MTT assay, MCF7 cell line; format: cell-based, human; conditions: 24 hr treatment, in % (unit assumed); for Cytotoxicity at 5 µg/l: MCF7, 5 µg/l; for Cytotoxicity at 10 µg/l: MCF7, 10 µg/l; for Cytotoxicity at 20 µg/l: MCF7, 20 µg/l
Method in brief: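 Cells in RPMI-1640 with 10% FBS were seeded at 1.0x10^4 cells/well and cultured 48 h, then exposed to compound for 24 hr. Viability was measured by MTT reduction (4 hr), with formazan dissolved in DMSO and read at 570 nm, relative to untreated cells. Values are means of three independent triplicate experiments.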

Cc1cc(O)n2nc3c(c2n1)C(=O)NC(=O)C3=NNc1ccccc1 [Compound 16a, 4-Hydroxy-2-methyl-7-(2-phenylhydrazono)pyrido[4ʹ,3ʹ:3,4]pyrazolo[1,5-a]pyrimid-ine-8,10(7H,9H)-dione]
Apoptosis Early (HepG2 cells): 8.26%
Apoptosis Late (HepG2 cells): 4.32%
Necrosis (HepG2 cells): 2.75%
increase of early apoptosis ratio (HepG2 cells): 8 times
increase of late apoptosis rate (HepG2 cells): ~4 times
Cytotoxicity at 5 µg/l (MCF7 cell line): 55.09
Cytotoxicity at 10 µg/l (MCF7 cell line): 57.34
Cytotoxicity at 20 µg/l (MCF7 cell line): 77.25

COc1ccc(C=C2C(=O)NC(=O)c3c2nn2c(C)cc(C)nc32)cc1 [Compound 7b]
Apoptosis Early (HepG2 cells): 5.71%
Apoptosis Late (HepG2 cells): 13.72%
Necrosis (HepG2 cells): 5.46%
apoptosis-inducing effect (HepG2 cells; HepG2, as stated in the abstract): 34.70%
increase of early apoptosis ratio (HepG2 cells): 5 times
increase of late apoptosis rate (HepG2 cells): about 13 times
Cytotoxicity at 5 µg/l (MCF7 cell line): 60.48
Cytotoxicity at 10 µg/l (MCF7 cell line): 79.12
Cytotoxicity at 20 µg/l (MCF7 cell line): 95.03

COc1ccc(NN=C2C(=O)NC(=O)c3c2nn2c(O)cc(C)nc32)cc1 [Compound 16c, 4-Hydroxy-7-(2-(4-methoxyphenyl)hydrazono)-2-methylpyrido[4ʹ,3ʹ:3,4]pyrazolo[1,5-a]pyrimidine-8,10(7H,9H)-dione]
Apoptosis Early (HepG2 cells): 6.31%
Apoptosis Late (HepG2 cells): 3.20%
Necrosis (HepG2 cells): 2.56%
increase of early apoptosis ratio (HepG2 cells): 6 times
increase of late apoptosis rate (HepG2 cells): ~3 times
Cytotoxicity at 5 µg/l (MCF7 cell line): 56.81
Cytotoxicity at 10 µg/l (MCF7 cell line): 62.79
Cytotoxicity at 20 µg/l (MCF7 cell line): 79.61
